Test results reported in publication PMC9060753, “pDobz/pDobb protected diaminodiacid as a novel building block for peptide disulfide-bond mimic synthesis” (RSC Advances, 2019).
Bridge positions count the residues as written; N and C are the ends. Square brackets hold non-standard residues; d marks the D form. Triazole bridges read from a SMILES are 1,4-linked. Peptide text beside a SMILES is read from it. Dap(N3) = [N-]=[N+]=NC[C@H](N)C(=O)O; Pra = C#CC[C@H](N)C(=O)O

Columns and labels:
[1] = pH 7.4
α-chymotrypsin = α-chymotrypsin (Bos taurus, UniProt P00766); conditions: pH 7.4

SMILES	Reduction stability in aqueous DTT solution (percent residual peptide) [1]	Protease stability under α-chymotrypsin treatment (percent residual peptide) (α-chymotrypsin)	Difference of protease stability versus native model peptide contryphan-Vn (α-chymotrypsin)
NCCCC[C@@H]1NC(=O)[C@@H](Cc2c[nH]c3ccccc23)NC(=O)[C@@H]2CCCN2C(=O)[C@@H](NC(=O)[C@H](CC(=O)O)NC(=O)CN)CSSC[C@@H](C(N)=O)NC(=O)[C@H](Cc2c[nH]c3ccccc23)NC(=O)[C@@H]2CCCN2C1=O [contryphan-Vn, Contryphan-Vn[1,9], reference compound] (H-GDCP[dW]KPWC-NH2; disulfide 3-9)	completely reduced	degraded completely	–
NCCCC[C@@H]1NC(=O)[C@@H](Cc2c[nH]c3ccccc23)NC(=O)[C@@H]2CCCN2C(=O)[C@@H](NC(=O)[C@H](CC(=O)O)NC(=O)CN)Cn2cc(nn2)C[C@@H](C(N)=O)NC(=O)[C@H](Cc2c[nH]c3ccccc23)NC(=O)[C@@H]2CCCN2C1=O [Compound 14, [Ala1(&^1),Ala7(&^2)]contryphan-Vn[1,9][(&^1-1,4-[1,2,3]-triazolyl-&^2)]] (H-GD[Dap(N3)]P[dW]KPW[Pra]-NH2; triazole 3-9)	remained intact	degraded completely	No significant differences
